Measurements: publication PMC9821130, “Testing Antimicrobial Properties of Selected Short Amyloids” (International Journal of Molecular Sciences, 2023)
≈ marks a conversion by molar mass, not a printed value. Read-outs that look alike come from different tables or passages of the source. Where a SMILES comes first, the peptide text is derived from it. Where no end group is shown, it is not given here.

What was measured:
[1] = system: Enterococcus faecium 2VRE; type: cell-based
Method: (§1) All bacterial strains were stored at −80 °C. The strains were revived using overnight cultures prepared in Tryptic Soy Broth (TSB, OXOID, Basingstoke, UK) and incubated under shaking conditions (MaxQTM6000 incubator shaker, Thermo Scientific, Waltham, MA, USA) at 125 rpm and 37 °C. Next, the purity of the strains was evaluated using enriched media (appropriate for the tested strains). For each experiment, a fresh 18–20 h culture was prepared on Tryptic Soy Agar (TSA, OXOID, Basingstoke, UK) for Gram-positive bacteria and MacConkey Agar (MC, OXOID, Basingstoke) for Gram-negative bacteria, and the samples were then transferred to fresh Mueller–Hinton Broth (MHB, OXOID, Basingstoke, UK), where the density was determined. Each culture was established at 10^8 CFU/mL and then diluted to a starting inoculum of 10^6 CFU/mL.
(§2) The microdilution method was used to measure the antimicrobial activity of amyloids. The test was performed according to the recommendations of EUCAST (ISO 20776–1:2019).
(§3) In 96-well microtiter plates, geometric dilutions of the tested amyloids were prepared from 128 to 0.25 µg/mL in 50 µL MHB. The stock solution (20 mg/mL) of the synthesized amyloids was prepared in MHB. The bacterial suspension prepared in MHB with a density of 10^6 CFU/mL was added to 50 µL of MHB containing the appropriate concentrations of amyloids, thus yielding a final bacterial concentration of 10^5 CFU/mL. Pure MHB was used as a negative control, while the control for bacterial growth was MHB medium in the presence of the strain used in the experiment. Antibiotic solutions were used as positive controls: colistin for Gram-negative bacteria and teicoplanin for Gram-positive bacteria.
(§4) Microtiter plates were incubated at 37 °C for 18 h for S. aureus, S. epidermidis, K. pneumoniae, E. coli, A. baumannii, and E. cloacae and 24 h for E. faecalis and E. faecium. Optimal density (OD600 nm) was measured in a plate reader (ASYS UVM340, BIOCHROM Ltd., Cambridge, UK). The absorbance results were converted to percentages (with respect to growth control) in the normalization process. The MIC (minimal inhibitory concentration) for each peptide was defined as the concentration at which the destruction of at least 90% of the initial inoculum was observed.
(§5) Each experiment was performed in three independent studies for each of the two isolates, and each replicate was performed in three separate wells. […] The MBC value was defined as the lowest concentration at which no growth of the tested strain was observed.
(§6) Linear regression analyses for viability of the HEK-293 cells subjected to ten amyloids, as well as the estimation of IC50 values, were determined in R Statistical Software using the model y = ax + 100% in the function lm from the stats package. The regression analyses for the viability of the bacterial cells and the estimation of MIC were conducted based on a linear mixed-effects model y = ax + 100% + (1|isolate/replicate) in lmer function from R package lme4 [73]. Isolates and replicates were assumed as random effects. The p-values of the determination coefficient and the slope were corrected using the Benjamini–Hochberg procedure for the obtained models.

[2] = system: Enterococcus faecalis 37VRE; type: cell-based
Method: as §1, §2, §3, §4, §5, §6

HEK-293 cells = type: cell-based, human; conditions: HEK-293, MTT, 24 h exposure, 128 to 0.25 µg/mL; from linear regression y = ax + 100%
Method: HEK-293 human embryonic kidney cells (ATCC, CRL-1573) were cultured in DMEM medium supplemented with 10% fetal bovine serum and 1% penicillin/streptomycin solution. The cells were cultured at 37 °C, 5% CO2, until the concentration was about 10^6 per mL. A total of 2 × 10^5 cells/mL were seeded in 96-well tissue microplates (2 × 10^4 cells per well) and were allowed to adhere overnight under the conditions described above. Cytotoxicity tests were carried out on the cells prepared in this way.
Cells were incubated with varying concentrations from 128 to 0.25 µg/mL of the tested amyloid for 24 h exposure. The MTT assay has been previously described. After incubating the cells with the tested amyloids, the MTT reagent (Ck = 0.5 mg/mL) was added to a well of a microtiter plate. After 2 h incubation (37 °C, 5% CO2), the MTT medium was removed and replaced with DMSO, to which was then added Sorensen’s buffer (0.1 M glycine, 0.1 M NaCl; pH 10.5). In the MTT test, the cell viability is directly proportional to the absorbance (570 nm). The control cells for background absorbance contained the growth medium, with MTT only. For MTT analysis, at least three experiments were performed using cells from consecutive passages. […]

[3] = system: Klebsiella pneumoniae N111; type: cell-based
Method: as §1, §2, §3, §4, §5, §6

Escherichia coli 1471 = type: cell-based
Method: as §1, §2, §3, §4, §5, §6

[4] = Thioflavin T fluorescence, fibril/aggregate formation in MHB; type: physicochemical; conditions: ThT 20 µM, peptide 20 mg/mL in MHB, 37 °C, 24 h, reading every 30 s, ex 450 nm / em 490 nm
Method: In the second stage of our research, we decided to determine the propensity of the ten short amyloids (Table 1) to form fibrils under the conditions routinely used to evaluate AMP properties, i.e., upon their incubation in Mueller–Hinton Broth (MHB; for details, see Materials and Methods). These experiments could also allow us to speculate whether the amyloid properties of peptides go along with their antimicrobial activities. To detect the presence of protein fibrils, we used a benzothiazole dye (thioflavin T). Thioflavin T binds to β sheet-rich structures in amyloid aggregates and triggers a characteristic red shift, i.e., an increase in the wavelength in both excitation and emission maximum of the dye. […] The fluorescence spectra of the remaining peptides were indistinguishable from those of the medium itself (Figure S1).
The amyogenic abilities of the tested amyloids were determined in a kinetic reaction using the fluorescent dye thioflavin T (ThT), according to the modified method of Salinas et al.. […] ThT fluorescence intensity readings were performed in 96-well opaque microplates using a SpectraMax GeminiXPS spectrofluorometer at an excitation of λex 450 nm, an emission of λem 490 nm, and a cut-off point of λcut off 475 nm. Measurements were monitored for 24 h every 30 s. at 37 °C. The results were analysed in the SoftMax program. […]

Row | Compound | MIC ([1]; 2VRE) [µg/mL] | MIC ([2]; 37VRE) [µg/mL] | MIC (Escherichia coli 1471) [µg/mL] | further results
1 | VQIVCK [Amyloid 1] | 196 | 228 |  | 
2 | LIVAGK [Amyloid 3] | 301 |  |  | 
3 | VCIVYK [Amyloid 2] | 177 | 364 |  | 
4 | GGYLLG [Amyloid 9] |  |  |  | IC50 (HEK-293 cells): 171 µg/mL; MIC ([1]; E. faecium 2VRE, calculated from linear mixed-effects regression model, beyond tested range (max 128 µg/mL), MIC = at least 90% destruction): 204 µg/mL; MIC ([2]; E. faecalis 37VRE, calculated from linear mixed-effects regression model, beyond tested range (max 128 µg/mL)): 389 µg/mL; MIC ([3]; K. pneumoniae N111, calculated from linear mixed-effects regression model, beyond tested range (max 128 µg/mL)): 406 µg/mL
5 | LKVKVL [Amyloid 7] | 326 | 418 | 345 | 
6 | C[C@@H](O)[C@H](NC(=O)[C@H](Cc1ccccc1)NC(=O)[C@H](CS)NC(=O)[C@H](Cc1c[nH]c2ccccc12)NC(=O)[C@H](CS)NC(=O)[C@@H](N)CCCCN)C(=O)O [Amyloid 5] (H-KCWCFT-OH; N-terminus and C-terminus assumed) | 230 (≈ 292 µM) |  | 405 (≈ 515 µM) | Formation of aggregates (fibrils) in the MHB medium [4]: formed aggregates in the MHB medium
7 | VKIVYK [Amyloid 6] | 179 |  | 319 | MIC ([3]; N111): 482 µg/mL
8 | VGIVYK [Amyloid 10] | 295 | 193 |  | 
9 | AIIGLM [Amyloid 8] | 280 | 496 | 372 | MIC ([3]; N111): 475 µg/mL
